From the NIST ThermoML archive (doi:10.1021/acs.jced.8b00643)
± gives the expanded uncertainty stated by the source.

Tests used:
[1] = for vapor or sublimation pressure: Transpiration method
[2] = Molar enthalpy of transition or fusion; conditions: Crystal; DSC

O=C1NCCCO1 [tetrahydro-1,3-oxazin-2-one]
Conditions	mass density [kg/m3]
[1], 293 K, 101.33 kPa, Crystal, Pycnometric method	1490 ± 20

[1]
Conditions	Triple point temperature [K]	vapor or sublimation pressure [kPa]
327.7 K, Crystal	–	0.00023 ± 2e-05
332.7 K, Crystal	–	0.00039 ± 3e-05
337.7 K, Crystal	–	0.00061 ± 5e-05
342.7 K, Crystal	–	0.001 ± 7e-05
345.7 K, Crystal	–	0.00134 ± 0.0001
348.6 K, Crystal	–	0.00167 ± 0.00012
352.6 K, Crystal	–	0.0024 ± 0.00017
358 K, Liquid	–	0.00409 ± 0.00027
361.3 K, Liquid	–	0.00517 ± 0.00036
365.3 K, Liquid	–	0.00677 ± 0.00046
368 K, Liquid	–	0.00807 ± 0.00055
370.2 K, Liquid	–	0.0095 ± 0.00063
372.8 K, Liquid	–	0.01116 ± 0.00073
377.4 K, Liquid	–	0.01498 ± 0.00098
380.3 K, Liquid	–	0.01771 ± 0.0011
382.2 K, Liquid	–	0.02005 ± 0.0013
385.1 K, Liquid	–	0.02395 ± 0.0015
Crystal, DSC	355.3 ± 0.9	–

Conditions	Molar enthalpy of transition or fusion [kJ/mol]
[2]	15.3 ± 1.1
